Measurements: US12617818B2, “Compositions and methods for modulating myosin subfragment-2 coiled coil stability and methods for using them” (UNIVERSITY OF NORTH TEXAS, priority 2020, dated 2026)
Entries after “also recorded” stand apart in the source; their conditions may differ.

Biological target: T1, smooth muscle myosin S2 peptide (MYH11) (Homo sapiens, UniProt P35749)
T1 construct: host or cells: chemical synthesis
T1 sequence (P35749 with tags, fused parts or gaps): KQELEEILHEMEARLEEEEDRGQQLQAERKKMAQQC
Experiment: GFS, uncoiling of smooth myosin S2 peptide dimer
Type: biochemical
Details: for impact on mechanical stability of smooth muscle myosin S2 peptide: force distance curve vs control; for Force required to uncoil S2 molecule: length 10 nm, in presence of the anti-S2 peptide, ± SEM
Text: 3-aminopropyltriethoxysilane, acetone, coupling buffer (0.01 M pyridine in water with pH 6.0), 5% glutaraldehyde, quenching solution (1 M glycine in water with pH 7.0), blocking buffer (0.01 M Tris, 0.1% sodium azide, 0.1% bovine serum albumin, 0.15 M sodium chloride, and 0.001 M ethylenediaminetetraacetic acid with pH 7.0), wash buffer (0.01 M Tris, 0.1% sodium azide, 0.15 M sodium chloride, and 0.001 M ethylenediaminetetraacetic acid with pH 7.0) low salt buffer (0.1 M potassium chloride, 0.02 M imidazole, 5 mM magnesium chloride, with pH 7.0), 1-ethyl-3-(3-dimethyaminopropyl) carbodiimide, N-hydroxysuccinamide, iodoacetamide-succinimidyl ester, 8M urea solution (50 mM imidazole and 0.1 mM tris (2-carboxyethyl) phosphine with pH 7.0) monodisperse silica beads, glass slides, glass coverslips, vacuum grease, rabbit skeletal myosin, purified actin (G-actin), 1 μM human β-cardiac myosin S2 peptide, 1 μM human β-cardiac mutants myosin S2 peptide (E930del and E924K), 1 μM human skeletal myosin S2 peptide, 1 μM human smooth myosin S2 peptide, stabilizer peptide, and destabilizer peptide. A light microscope with an objective lens of 10× was mounted on an alt-azimuthal mount. A digital video camera of Sony, XCD-V60 was replaced with the ocular lenses. Extension springs on steel bracket held the alt-azimuthal mount suspended.
Gravitational force spectroscopy (GFS), is a single molecule force spectroscopy that utilizes gravitational force to measure absolute length of a single molecule at the given force calculated by the density of the bead suspending the molecule. This technique was discovered and developed in Root lab, which measures the forces in piconewton and sub-piconewton levels. Other than absolute length of a molecule, GFS measures force range required to uncoil, stretch or extend the molecule yielding a force-distance profile for the suspended molecule. Besides that, based on the force-distance profile, number of amino acids within the molecule can be calculated. […] The GFS allowed to test the flexibility or stability of a single molecule of myosin S2 peptide and also for the S2 peptides treated with anti-S2 peptides. Flexibility of myosin S2 is not dependent on assembly myosin as a thick filament or myosin in its single molecule form. […]
Free fall mode, another measurement variant of GFS which allows the user to get a force distance profile on a single molecule experiencing the gravitational force. […] During the free fall mode, GFS has a single molecule which is suspended within an immobile edge and mobile bead will now experience the variable force which would be calculated by the product of mass of the bead and the acceleration of the GFS. […]

| Structure (SMILES) | impact on mechanical stability of smooth muscle myosin S2 peptide | Force required to uncoil S2 molecule [pN] |
| --- | --- | --- |
| CSCC[C@H](NC(=O)[C@H](CCC(=O)O)NC(=O)[C@H](CCCNC(=N)N)NC(=O)[C@H](CCC(=O)O)NC(=O)[C@H](CC(=O)O)NC(=O)[C@H](CCC(=O)O)NC(=O)[C@H](CC(C)C)NC(=O)[C@H](CCCNC(=N)N)NC(=O)[C@H](CCC(=O)O)NC(=O)[C@H](CC(N)=O)NC(=O)[C@H](CCSC)NC(=O)[C@@H](N)CCC(=O)O)C(=O)N[C@@H](CCCCN)C(=O)N[C@@H](C)C(=O)N[C@@H](CCC(=O)O)C(=O)N[C@@H](CC(C)C)C(=O)N[C@H](C(=O)N[C@@H](C)C(=O)N[C@@H](CCCCN)C(=O)O)[C@@H](C)O [Destabilizer] | do not have an impact | 4.51E−01 ± 2.98E−02 |
| C[C@H](NC(=O)[C@H](CCCCN)NC(=O)[C@H](Cc1ccccc1)NC(=O)[C@H](CCCCN)NC(=O)[C@H](CCCCN)NC(=O)[C@H](CCCCN)NC(=O)[C@H](CCCCN)NC(=O)[C@H](CCCCN)NC(=O)[C@H](CCCCN)NC(=O)[C@H](CCCCN)NC(=O)[C@@H](N)CCCCN)C(=O)N[C@@H](CCCCN)C(=O)N[C@@H](CCCCN)C(=O)N[C@@H](CCCCN)C(=O)N[C@@H](CCCCN)C(=O)N[C@@H](CCCCN)C(=O)N[C@@H](CCCCN)C(=O)O [Stabilizer] | do not have an impact; also recorded: no effect | 4.96E−01 ± 7.60E−02 |
